{"source": "paper PMC12706802", "about": "“Ortho-Hydroxyanilides: Slow-Acting, Selective Histone Deacetylase 1/2 Inhibitors Suitable for Photocaging Applications” (ACS Pharmacology & Translational Science, 2025)", "key": {"MV-3 cells": {"system": "MV-3 cells", "test": "MTT cell viability (antiproliferative) assay", "format": "cell-based, human", "conditions": "for EC50: Homo sapiens, read-out: MV-3 EC50 (MTT); for viability reduction, MV-3 (MTT): at 15 μM, 72 h", "protocol": "To evaluate the cytotoxicity of the selected HDAC inhibitors, compounds were tested for their antiproliferative activity against MV-3 and MDA-MB-231 cells using the MTT assay. […] MTT (3-(4,5-dimethylthiazol-2-yl)-2,5-diphenyltetrazolium bromide; Catalog# A2231; BioChemica, Applichem GmbH, Darmstadt, Germany) was utilized to measure the antiproliferative effect. Depending on the incubation time, 3000 MV-3 cells (72 h), 2000 MV-3 cells (96 h) or 1000 MV-3 cells (120 h) per well were seeded in 96-well plates (Starlab GmbH, Hamburg, Germany) with each well containing 199 μL of volume. […] Next, predilutions of the test compounds were prepared in DMSO. […] Subsequently, cells were treated with 1.0 μL of the dilution series of the test compounds. […] After removing the supernatant, formazan was solubilized in 200.0 μL DMSO. The absorbance was measured at 570 nm with background subtraction at 690 nm using a Multiskan microplate photometer (Thermo Fisher Scientific, Waltham, MA, USA). The obtained data were normalized to PBS, considering 100% viability."}, "HDACs in MM.1S cells": {"system": "HDACs in MM.1S cells", "test": "HDAC whole cell inhibition assay", "conditions": "Homo sapiens, MM1.S, read-out: whole-cell HDAC inhibition EC50, MM.1S", "procedure": "(§1) Furthermore, we determined the EC50 values in the nontumorigenic cell line HEK293 and in the hematological cancer cell line MM.1S.\n(§2) For this purpose, 3-fold serial dilutions of test compounds (DMSO) were prepared and added at a volume of 0.5 μL to the cells. […] MAL was used in a final concentration of 0.3 mM in the respective cell culture medium with 0.5% IGEPAL CA-630 (Catalog# J61055, Alfa Aesar). […] The obtained data were normalized to vehicle treated cells, considering 100% enzyme activity. IC50 values were determined by generating dose–response curves using the four-parameter logistic equation (GraphPad Prism 8.0, San Diego, USA)."}, "HDAC1": {"system": "HDAC1", "conditions": "cited from earlier work"}, "[1]": {"system": "HDACs in MDA-MB-231 cells", "test": "HDAC whole cell inhibition assay", "conditions": "Homo sapiens, MDA-MB-231, light or radiation study, 18 h, read-out: whole-cell HDAC inhibition EC50, MDA-MB-231", "procedure": "as §1, §2"}, "Ac-α-tubulin (HDAC6)": {"system": "Ac-α-tubulin (HDAC6)", "test": "Immunoblot analysis of MV-3 cell lysates", "format": "cell-based, human", "conditions": "MV-3, 5 μM, 24–72 h", "procedure": "The impact on the acetylation levels of the HDAC substrates Ac-histone H3 (class I HDACs) and Ac-α-tubulin (HDAC6) was analyzed by immunoblot analysis.\nRepresentative images from at least three replicates are shown.\nAfter that, cells were treated with a concentration of 5 μM of HDAC inhibitor or vehicle (DMSO) for additional 24 h, 48 h or 72 h. For cell lysis the cells were initially washed with PBS and detached using a scraper. The cells were then centrifuged at 1200 rpm for 4 min at 4 °C, followed by two additional washing steps. After that, the cell pellet was resuspended in 100 μL of freshly prepared lysis buffer and incubated on ice for 30 min with vortexing every 10 min. […] Finally, the samples were centrifuged at 14,000 rpm and 4 °C for 30 min and the supernatant was collected. […] The membrane was blocked with a solution of 5% milk powder in TBST (Tris-buffered saline-Tween 20 0.2%) for 60 min at room temperature. After three washing cycles for 10 min with TBST, the membrane was incubated with the respective antibody and a mouse anti-GAPDH antibody (Catalog# T0004, Affinity Biosciences, Cincinnati, OH, USA; 1:20,000 dilution) at room temperature for 60 min and 4 °C overnight. […] Membrane was rinsed again three times before applying the secondary antibody for 1.5 h at room temperature."}, "HDACs in HEK293 cells": {"system": "HDACs in HEK293 cells", "test": "HDAC whole cell inhibition assay", "conditions": "Homo sapiens, HEK293, read-out: whole-cell HDAC inhibition EC50, HEK293", "procedure": "as §1, §2"}, "MDA-MB-231 cells": {"system": "MDA-MB-231 cells", "test": "Annexin V/PI apoptosis assay", "conditions": "MDA-MB-231, 10 μM, 48 h", "procedure": "Cells were stained with annexin V and propidium iodide (PI). (A) Data represents the mean ± SD of at least three individual experiments. Significances were determined by one-way ANOVA followed by Dunnett’s multiple comparisons test and are indicated by asterisks (*P ≤ 0.05, **P ≤ 0.01, ***P ≤ 0.001).\nAfter the incubation period, cells were collected and washed with cell staining buffer (HEPES 0.1 M, NaCl 1.4 M, CaCl2 × 3 H2O 25 mM). […] Data was evaluated with GraphPad Prism 8 (GraphPad Software, San Diego, CA, USA)."}, "HDACs in MV-3 cells": {"system": "HDACs in MV-3 cells", "test": "HDAC whole cell inhibition assay", "conditions": "Homo sapiens, MV-3, light or radiation study, 18 h, read-out: whole-cell HDAC inhibition EC50, MV-3", "procedure": "as §1, §2"}, "[2]": {"conditions": "MV-3, light or radiation study, incubation time 120 h, no irradiation"}}, "note": "Like-named read-outs stand apart in the source and are kept apart here.", "data": [{"smiles": "CC(=O)Nc1ccc(C(=O)Nc2cc(-c3cccs3)ccc2N)cc1", "note": "[Cpd-60, reference compound]", "values": [{"measurement": "EC50", "setting": "MV-3 cells; [2]", "result": "370 ± 40", "unit": "nM"}, {"measurement": "EC50", "setting": "MV-3 cells; MV-3, incubation time 96 h", "result": "2340 ± 790", "unit": "nM"}, {"measurement": "viability reduction, MV-3 (MTT)", "setting": "MV-3 cells", "result": "< 25", "unit": "%"}, {"measurement": "EC50", "setting": "HDACs in MM.1S cells", "result": "111 ± 38", "unit": "nM"}, {"measurement": "IC50", "setting": "HDAC1; literature value for Cpd-60, ref number not given", "result": 7, "unit": "nM"}, {"measurement": "EC50", "setting": "[1]", "result": "87 ± 8", "unit": "nM"}, {"measurement": "acetylation level of α-tubulin (immunoblot)", "setting": "Ac-α-tubulin (HDAC6)", "result": "absence of HDAC6 inhibition"}, {"measurement": "EC50", "setting": "HDACs in HEK293 cells", "result": "178 ± 23", "unit": "nM"}, {"measurement": "apoptosis induction (annexin V/PI)", "setting": "MDA-MB-231 cells", "result": "significantly induced apoptosis"}, {"measurement": "EC50", "setting": "HDACs in MV-3 cells", "result": "97 ± 26", "unit": "nM"}]}, {"smiles": "CC(=O)Nc1ccc(C(=O)Nc2cc(-c3ccccc3)ccc2O)cc1", "note": "[ST13, 4-Acetamido-N-(4-hydroxy-[1,1′-biphenyl]-3-yl)-benzamide]", "values": [{"measurement": "EC50", "setting": "MV-3 cells; [2]", "result": "2770 ± 880", "unit": "nM"}, {"measurement": "EC50", "setting": "MV-3 cells; MV-3, incubation time 96 h", "result": "7940 ± 1360", "unit": "nM"}, {"measurement": "viability reduction, MV-3 (MTT)", "setting": "MV-3 cells", "result": "< 25", "unit": "%"}, {"measurement": "EC50", "setting": "HDACs in MM.1S cells", "result": "637 ± 158", "unit": "nM"}, {"measurement": "IC50", "setting": "HDAC1; previously described, ref Methot et al.", "result": 18, "unit": "nM"}, {"measurement": "EC50", "setting": "[1]", "result": "577 ± 97", "unit": "nM"}, {"measurement": "acetylation level of α-tubulin (immunoblot)", "setting": "Ac-α-tubulin (HDAC6)", "result": "absence of HDAC6 inhibition"}, {"measurement": "EC50", "setting": "HDACs in HEK293 cells", "result": "333 ± 64", "unit": "nM"}, {"measurement": "apoptosis induction (annexin V/PI)", "setting": "MDA-MB-231 cells", "result": "significantly induced apoptosis"}, {"measurement": "EC50", "setting": "HDACs in MV-3 cells", "result": "311 ± 47", "unit": "nM"}]}]}
